Assay results from paper PMC7818652 (ACS Catalysis, 2020).

Key:
Assay in all cases: steady-state kinetics, DCIP reduction (spectrophotometric)
Format in all cases: biochemical, Neurospora crassa
Conditions in all cases: 2,6-dichloroindophenol as saturating co-substrate; pH 6.0 citrate-phosphate; 30 °C
[1] = tested on: T1, CDHBBA
T1 construct: gene cdhIIA; single fused chain: CYT and linker of NcCDHIIB + DH and CBM1 of NcCDHIIA; expressed in Pichia pastoris KM71H; with Cellobiose dehydrogenase
Excerpt: steady-state kinetics, DCIP reduction (spectrophotometric) on CDHBBA

[2] = tested on: T2, CDHAAB
T2 construct: gene cdhIIB; single fused chain: CYT and linker of NcCDHIIA + DH of NcCDHIIB, no CBM1; expressed in Pichia pastoris KM71H; with Cellobiose dehydrogenase
Excerpt: steady-state kinetics, DCIP reduction (spectrophotometric) on CDHAAB

[3] = tested on: T3, CDHABB
T3 construct: gene cdhIIB; single fused chain: CYT of NcCDHIIA + linker and DH of NcCDHIIB, no CBM1; expressed in Pichia pastoris KM71H; with Cellobiose dehydrogenase
Excerpt: steady-state kinetics, DCIP reduction (spectrophotometric) on CDHABB

[4] = tested on: T4, CDHBAA
T4 construct: gene cdhIIA; single fused chain: CYT of NcCDHIIB + linker, DH and CBM1 of NcCDHIIA; expressed in Pichia pastoris KM71H; with Cellobiose dehydrogenase
Excerpt: steady-state kinetics, DCIP reduction (spectrophotometric) on CDHBAA

Km [1]: 75 ± 5 µM | Km [2]: 46 ± 3 µM | Km [3]: 26 ± 3 µM | Km [4]: 57 ± 6 µM
Structure (SMILES): OC[C@H]1O[C@@H](O[C@H]2[C@H](O)[C@@H](O)C(O)O[C@@H]2CO)[C@H](O)[C@@H](O)[C@@H]1O (stereo partly shown) [cellobiose]
